pIC50: −log10 of the molar value.

The values that follow come from ChEMBL document CHEMBL5325453, “Isolation and identification of the new baicalin target protein to develop flavonoid structure-based therapeutic agents” (Bioorg Med Chem, 2023).

Experiment [1] has as its target T1, Glyceraldehyde-3-phosphate dehydrogenase (Homo sapiens, UniProt P04406). Nature of the experiment: Binding affinity to human recombinant GAPDH incubated for 30 mins by fluorescence quenching assay. The following applies: dose <= 50.0 µM.
Target sequence in this assay (P04406 2-335 limits assumed): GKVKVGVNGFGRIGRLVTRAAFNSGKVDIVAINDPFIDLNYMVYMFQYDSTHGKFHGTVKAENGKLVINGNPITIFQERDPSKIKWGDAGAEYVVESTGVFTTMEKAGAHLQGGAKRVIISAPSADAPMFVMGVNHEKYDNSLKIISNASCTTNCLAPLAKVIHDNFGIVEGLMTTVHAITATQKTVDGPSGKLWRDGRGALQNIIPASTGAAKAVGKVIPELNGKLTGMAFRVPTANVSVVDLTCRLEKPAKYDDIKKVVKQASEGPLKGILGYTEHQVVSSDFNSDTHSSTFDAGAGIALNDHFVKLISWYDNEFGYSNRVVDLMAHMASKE
Experiment [2] deals with T1, Glyceraldehyde-3-phosphate dehydrogenase. Nature of the experiment: Binding affinity to human recombinant GAPDH assessed as Stem-Volmer quenching constant at 298 K incubated for 30 mins by fluorescence quenching assay.
Target sequence in this assay (P04406 2-335 limits assumed): as above
For experiment [3] the target is unchanged. Nature of the experiment: Binding affinity to human recombinant GAPDH assessed as Stem-Volmer quenching constant at 310 K incubated for 30 mins by fluorescence quenching assay.
Target sequence in this assay (P04406 2-335 limits assumed): as above
For experiment [4] the target is unchanged. The experiment can be described thus: Binding affinity to human recombinant GAPDH assessed as equilibrium binding constant at 298 K incubated for 30 mins by fluorescence quenching assay.
Target sequence in this assay (P04406 2-335 limits assumed): as above
The target is the same in experiment [5]. Nature of the experiment: Binding affinity to human recombinant GAPDH assessed as equilibrium binding constant at 310 K incubated for 30 mins by fluorescence quenching assay.
Target sequence in this assay (P04406 2-335 limits assumed): as above
Experiment [6] has the same target. Nature of the experiment: Binding affinity to human recombinant GAPDH assessed as change in enthalpy at 298 K incubated for 30 mins by fluorescence quenching assay.
Target sequence in this assay (P04406 2-335 limits assumed): as above
Experiment [7] shares this target. Nature of the experiment: Binding affinity to human recombinant GAPDH assessed as change in entropy at 298 K incubated for 30 mins by fluorescence quenching assay.
The target is the same in experiment [8]. The experiment can be described thus: Binding affinity to human recombinant GAPDH assessed as change in gibbs free energy at 298 K incubated for 30 mins by fluorescence quenching assay.
Experiment [9] shares this target. The experiment can be described thus: Binding affinity to human recombinant GAPDH assessed as change in gibbs free energy at 310 K incubated for 30 mins by fluorescence quenching assay.
Experiment [10] has the same target. Nature of the experiment: Inhibition of human recombinant GADPH incubated for 30 mins by absorbance based assay.
Target sequence in this assay (P04406 whole entry): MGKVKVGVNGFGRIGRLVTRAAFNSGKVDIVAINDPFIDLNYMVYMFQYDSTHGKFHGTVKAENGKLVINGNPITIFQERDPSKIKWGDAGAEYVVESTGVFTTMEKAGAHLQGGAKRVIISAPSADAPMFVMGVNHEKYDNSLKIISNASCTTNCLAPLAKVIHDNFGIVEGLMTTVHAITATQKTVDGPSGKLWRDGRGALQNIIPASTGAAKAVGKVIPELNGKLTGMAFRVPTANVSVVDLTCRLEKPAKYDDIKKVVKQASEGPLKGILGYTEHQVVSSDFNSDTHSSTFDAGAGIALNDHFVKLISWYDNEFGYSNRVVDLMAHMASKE

For `O=c1cc(-c2ccccc2)oc2cc(O)c(O)c(O)c12` [BAICALEIN], in experiment [1], the Activity result is “Dose-Dependent Effect”. Also, the KSV in experiment [2] amounted to 26.7 µM⁻¹; in [3], 26.3 µM⁻¹. For the same molecule, the results for the Kb in experiment [4] and in [5] were 427 M⁻¹ and 341 M⁻¹, respectively. In addition, the deltaH in experiment [6] was -3.42 kcal/mol. The deltaS in experiment [7] stood at 2.38 J/mol/K. Besides, the deltaG in experiment [8] and in experiment [9] was -3.59 kcal/mol throughout. The pIC50 (as a rule, the negative decadic logarithm of the IC50, by convention in mol/L) in experiment [10] was 4.36.
Take `O=C(O)[C@H]1O[C@@H](Oc2cc3oc(-c4ccccc4)cc(=O)c3c(O)c2O)[C@H](O)[C@@H](O)[C@@H]1O` [BAICALIN]: in experiment [1], the Activity result is “Dose-Dependent Effect”. Moreover, the KSV turned out to be 27.3 µM⁻¹ in experiment [2] and 17.4 µM⁻¹ in experiment [3]. Further, the Kb was 2270 M⁻¹ in [4] and 634 M⁻¹ in experiment [5]. In experiment [6], the deltaH was -19.5 kcal/mol. In experiment [7], the deltaS was -210 J/mol/K. Further, the deltaG was -4.58 kcal/mol in [8] and -3.97 kcal/mol in [9]. In addition, the pIC50 in experiment [10] is 4.39.
